Assay [1] deals with T1, GST-LXRβ ligand-binding domain (Homo sapiens, UniProt P55055, DUP175-175).
T1 construct: amino acids 156-461; NP009052; made in house; host or cells: E. coli
T1 sequence (P55055 with tags, fused parts or gaps DUP175-175): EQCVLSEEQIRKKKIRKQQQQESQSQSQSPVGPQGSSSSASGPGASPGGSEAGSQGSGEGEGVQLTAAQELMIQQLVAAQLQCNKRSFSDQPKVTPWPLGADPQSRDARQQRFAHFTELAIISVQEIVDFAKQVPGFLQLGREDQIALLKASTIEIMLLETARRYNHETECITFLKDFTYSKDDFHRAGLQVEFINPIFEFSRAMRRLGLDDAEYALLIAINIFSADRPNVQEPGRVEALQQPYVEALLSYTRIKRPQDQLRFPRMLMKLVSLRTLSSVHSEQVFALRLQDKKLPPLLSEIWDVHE
The experiment in a line: TR-FRETβ activity assay (LXRβ-LBD / NCoA3 coactivator peptide, prestimulated with 24(S)-25-epoxycholesterol). The format is biochemical. More on the design: key to behavior in FRET assay: ag=agonist; ia=inverse agonist. The note with it: for EC50: 1 μM 24(S)-25-epoxycholesterol as prestimulating agonist, read-out: FRETβ activity range (EC50); for behavior in FRET assay: agonist or inverse agonist. The method in brief: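 E. coli-expressed GST-LXRβ LBD (aa 156-461) at 76 nM with biotinylated NCoA3 coactivator peptide (400 nM), in 240 mM KCl, BSA and Triton-X-100. Anti-GST-Tb cryptate/streptavidin-XL665 TR-FRET after 1 h equilibration at 4 °C, excitation 340 nm, emission 615 and 665 nm. Run in triplicate.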

Assay [2] deals with T2, LXRβ ligand-binding domain (LBD) (Homo sapiens, UniProt P55055, DUP175-175).
T2 construct: LXRβ (amino acids 156-461); expressed in transfected cells; host or cells: HEK293
T2 sequence (P55055 with tags, fused parts or gaps DUP175-175): T1 sequence (P55055 with tags, fused parts or gaps DUP175-175)
The experiment in a line: LXR Gal4 reporter transient transfection assay (M2H), Gal4β LBD. The format is cell-based. The note with it: HEK293 cells; read-out: M2H Gal4β LBD activity range (EC50). On the procedure: The tested compounds were usually dissolved, tested and stored as 20 mM stock solutions in DMSO. Since sulfonyl acetic acid derivatives tend to decarboxylate under these conditions, these stock solutions were prepared, tested and stored as 20 mM DMSO stock solutions containing 100 mM trifluoroacetic acid (5 equivalents). Sulfonyl acetic acid derivatives are shelf stable as solid at rt for long time as reported by Griesbrecht et al. (Synlett 2010:374) or Faucher et al. (J. Med. Chem. 2004; 47:18).
LXR Gal4 Reporter Transient Transfection Assays
LXRα and LXRβ activity status was determined via detection of interaction with coactivator and corepressor proteins in mammalian two-hybrid experiments (M2H). For this, via transient transfection the full length (FL) proteins of LXRα (amino acids 1-447; NP005684; SEQ ID NO:7) or LXRβ-(amino acids 1-461; NP009052; SEQ ID NO:8) or the ligand-binding domains (LBD) of LXRα (amino acids 155-447 SEQ ID NO:3) or LXRβ (amino acids 156-461; SEQ ID NO:4) were expressed from pCMV-AD (Stratagene) as fusions to the transcriptional activation domain of NFkB. As cofactors, domains of either the steroid receptor coactivator 1 (SRC1; amino acids 552-887; SEQ ID NO:5) or of the corepressor NCoR (amino acids 1903-2312 SEQ ID NO:6) were expressed as fusions to the DNA binding domain of the yeast transcription factor GAL4 (from pCMV-BD; Stratagene). Interaction was monitored via activation of a coexpressed Firefly Luciferase Reporter gene under control of a promoter containing repetitive GAL4 response elements (vector pFRLuc; Stratagene). Transfection efficiency was controlled via cotransfection of constitutively active pRL-CMV Renilla reniformis luciferase reporter (Promega). HEK293 cells were grown in minimum essential medium (MEM) with 2 mM L-glutamine and Earle's balanced salt solution supplemented with 8.3% fetal bovine serum, 0.1 mM non-essential amino acids, 1 mM sodium pyruvate, at 37° C. in 5% CO2. 3.5×10^4 cells/well were plated in 96-well cell culture plates in growth medium supplemented with 8.3% fetal bovine serum for 16-20 h to ˜90% confluency. For transfection, medium was taken off and LXR and cofactor expressing plasmids as well as the reporter plasmids are added in 30 μL OPTIMEM/well including polyethylene-imine (PEI) as vehicle. Typical amounts of plasmids transfected/well: pCMV-AD-LXR (5 ng), pCMV-BD-cofactor (5 ng), pFR-Luc (100 ng), pRL-CMV (0.5 ng). Compound stocks were prepared in DMSO, prediluted in MEM to a total volume of 120 μL, and added 4 h after addition of the transfection mixture (final vehicle concentration not exceeding 0.2%). Cells were incubated for additional 16 h, lysed for 10 min in 1× Passive Lysis Buffer (Promega) and Firefly and Renilla luciferase activities were measured sequentially in the same cell extract using buffers containing D-luciferine and coelenterazine, respectively. Measurements of luminescence were done in a BMG-Iuminometer.

As a reminder, the EC50 is the midpoint of the concentration-response curve.

Molecules are shown by their SMILES. Some results are limits rather than exact numbers.

`Cc1cc(C)c(S(=O)(=O)N(Cc2ccc(-c3cc(F)c(CO)c(S(C)(=O)=O)c3)cc2)Cc2ccc(C(F)(F)F)o2)c(C)c1` [Example C3/2]: the half-maximal effective concentration (EC50) in assay [1] and in assay [2] was under 100 nM in each case. For the same compound, in assay [1], the “behavior in FRET assay” value was “ia”.
`Cc1cc(C)c(S(=O)(=O)N(Cc2ccc(-c3cccc(CC(=O)O)c3)cc2)Cc2ccc(C(F)(F)F)o2)c(C)c1` [Example 2, 2-(4′-(((2,4,6-Trimethyl-N-((5-(trifluoromethyl)furan-2-yl)methyl)phenyl)sulfonamido)methyl)-[1,1′-biphenyl]-3-yl)acetic acid]: in assay [1], the concentration for a half-maximal effect (EC50) fell in the range of 100 to 1000 nM and the “behavior in FRET assay” value is on record as “ia”. Besides, the 50% effective concentration (EC50) in assay [2] is under 100 nM.
Regarding `Cc1ccc2ccccc2c1S(=O)(=O)N(Cc1ccc(-c2cccc(S(=O)(=O)CC(=O)O)c2)cc1)Cc1cccc(C(F)(F)F)c1` [11/19], in assay [1], the EC50 lay in the range of 1000 to 10000 nM and the “behavior in FRET assay” value was “ia”.
As for `Cc1cc(C)c(S(=O)(=O)N(Cc2ccc(-c3cccc(S(=O)(=O)CC(=O)O)c3)cc2)Cc2ccc(C(F)(F)F)o2)c(C)c1` [Example 5, 2-((4′-(((2,4,6-Trimethyl-N-((5-(trifluoromethyl)furan-2-yl)methyl)phenyl)sulfonamido)methyl)-[1,1′-biphenyl]-3-yl)sulfonyl)acetic acid], the EC50 in assay [1] lay within 1000 to 10000 nM.
With `Cc1ccc2ccccc2c1S(=O)(=O)N(Cc1ccc(-c2cccc(C(C)(C)C(=O)O)c2)cc1)Cc1ccc(C(F)(F)F)o1` [Example 24, 2-Methyl-2-(4′-(((2-methyl-N-((5-(trifluoromethyl)furan-2-yl)methyl)naphthalene)-1-sulfonamido)methyl)-[1,1′-biphenyl]-3-yl)propanoic acid], in assay [1], the half-maximal effective concentration (EC50) was under 100 nM and the “behavior in FRET assay” value was “ia”. Besides, the EC50 in assay [2] is under 100 nM.
Consider `Cc1cc(C)c(S(=O)(=O)N(Cc2ccc(-c3cccc(CC(=O)O)c3)cc2)C(C)c2ccc(C(F)(F)F)o2)c(C)c1` (stereo not drawn) [2/2], for which, in assay [1], the EC50 lay within 100 to 1000 nM and the “behavior in FRET assay” value was “ia”. Besides, the concentration for a half-maximal effect (EC50) in assay [2] was under 100 nM.
Regarding `Cc1cc(C)c(S(=O)(=O)N(Cc2ccc(C(F)(F)F)o2)Cc2ccc(-c3cccc(C(C)(C)C(=O)O)c3)cc2Cl)c(C)c1` [10/5], the EC50 in assay [1] and in assay [2] was under 100 nM each time. Also, in assay [1], the “behavior in FRET assay” value is “ia”.
For the compound `Cc1cc(C)c(S(=O)(=O)N(Cc2ccc(-c3cccc(S(=O)(=O)C(C)(C)C(=O)O)c3)cc2)Cc2ccc(C(F)(F)F)o2)c(C)c1` [5/2], in assay [1], the half-maximal effective concentration (EC50) was in the range of 1000 to 10000 nM and the “behavior in FRET assay” value is “ia”. Besides, in assay [2], the concentration giving a half-maximal response (EC50) was 100 to 1000 nM.
For `Cc1cc(C)c(S(=O)(=O)N(Cc2ccc(-c3cccc(C(C)(C)C(=O)O)c3)cc2)Cc2ccc(C(F)(F)F)o2)c(C)c1` [7/5], in that order: 100 to 1000 nM, “ia” and under 100 nM.
On the same counts, the results for `COc1cc(-c2cccc(C(C)(C)C(=O)O)c2)ccc1CN(Cc1ccc(C(F)(F)F)o1)S(=O)(=O)c1c(C)cc(C)cc1C` [10/4] are under 100 nM, “ia” and under 100 nM.

The values above are taken from patent publication US20200115357A1, “LIVER X RECEPTORS (LXR) MODULATORS” (Phenex-FXR GmbH, priority 2017, published 2020).
